Results reported in ChEMBL document CHEMBL1146114, “A new class of bradykinin 1 receptor antagonists containing the piperidine acetic acid tetralin core” (Bioorg Med Chem Lett, 2006).

Columns and labels:
B1 bradykinin receptor [1] = target: T1, B1 bradykinin receptor (Homo sapiens, UniProt P46663); assay: Inhibition of human B1 receptor
T1 sequence (P46663 whole entry): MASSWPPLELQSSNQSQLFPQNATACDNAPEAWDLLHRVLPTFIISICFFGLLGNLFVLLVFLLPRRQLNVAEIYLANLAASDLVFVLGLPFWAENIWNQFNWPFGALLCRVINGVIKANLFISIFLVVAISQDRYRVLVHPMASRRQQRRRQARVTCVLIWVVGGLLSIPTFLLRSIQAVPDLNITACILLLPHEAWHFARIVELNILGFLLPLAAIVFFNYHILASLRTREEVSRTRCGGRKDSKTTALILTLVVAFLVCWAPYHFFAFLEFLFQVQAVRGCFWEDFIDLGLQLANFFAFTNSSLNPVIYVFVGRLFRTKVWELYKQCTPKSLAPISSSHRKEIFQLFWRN

B1 bradykinin receptor [2] = target: T1, B1 bradykinin receptor; assay: Inhibition of human B1 receptor by calcium influx functional assay
[3] = Volume of distribution in rat at 1 mg/kg, iv; assay type: ADME, organism-based; set-up: dose 1 mg/kg, route intravenous; conditions: in vivo, read-out: Vss
[4] = Clearance in rat at 1 mg/kg, iv; assay type: ADME, organism-based; set-up: dose 1 mg/kg, route intravenous; conditions: in vivo
[5] = Oral bioavailability in rat at 10 mg/kg, po; assay type: ADME, organism-based; conditions: in vivo
[6] = Half life in rat at 1 mg/kg, iv; assay type: ADME, organism-based; set-up: dose 1 mg/kg, route intravenous; conditions: in vivo

| IC50 (B1 bradykinin receptor [1]) [nM] | IC50 (B1 bradykinin receptor [2]) [nM] | Compound | also measured |
| --- | --- | --- | --- |
| 58 | 54 | O=C(C[C@@H]1CCCCN1S(=O)(=O)c1cccc(C(F)(F)F)c1)N[C@@H]1CCCc2cc(CNC3CCC3)ccc21 | – |
| 16 | 31 | O=C(C[C@@H]1CCCCN1S(=O)(=O)c1cccc(C(F)(F)F)c1)N[C@@H]1CCCc2cc(CNCC3CC3)ccc21 | – |
| 610 | 4300 | CC(C)(C)NCc1ccc2c(c1)CCC[C@H]2NC(=O)C[C@@H]1CCCCN1S(=O)(=O)c1cccc2cnccc12 | – |
| 1700 | 2400 | CC(C)(C)NCc1ccc2c(c1)CCC[C@H]2NC(=O)C[C@@H]1CCCCN1S(=O)(=O)c1ccccc1 | – |
| 360 | 210 | CC(C)(C)NCc1ccc2c(c1)CCC[C@H]2NC(=O)C[C@@H]1CCCCN1S(=O)(=O)c1ccc(C(F)(F)C(F)(F)F)cc1 | – |
| 11 | 16 | Cc1ccc(S(=O)(=O)N2CCCC[C@H]2CC(=O)N[C@@H]2CCCc3cc(CNC(C)(C)C)ccc32)cc1C(F)(F)F | – |
| 21 | 46 | COCCNCc1ccc2c(c1)CCC[C@H]2NC(=O)C[C@@H]1CCCCN1S(=O)(=O)c1cccc(C(F)(F)F)c1 | – |
| 1500 | 960 | CC(C)(C)NCc1ccc2c(c1)OCC[C@H]2NC(=O)C[C@@H]1CCCN1S(=O)(=O)c1cccc(C(F)(F)F)c1 | – |
| 15 | 22 | Cc1ccc(S(=O)(=O)N2CCCC[C@H]2CC(=O)N[C@@H]2CCCc3cc(CNC(C)(C)C)ccc32)cc1Cl | – |
| 220 | 440 | CC(C)(C)NCc1ccc2c(c1)CCC[C@H]2NC(=O)C[C@@H]1CCCCN1S(=O)(=O)c1cccc2cccnc12 | – |
| 1900 | 700 | O=C(C[C@@H]1CCCCN1S(=O)(=O)c1cccc(C(F)(F)F)c1)N[C@@H]1CCCc2cc(CNCC(F)(F)F)ccc21 | – |
| 48 | 47 | O=C(C[C@@H]1CCCCN1S(=O)(=O)c1cccc(C(F)(F)F)c1)N[C@@H]1CCCc2cc(CNC3CC3)ccc21 | – |
| 13 | 42 | CC(C)CNCc1ccc2c(c1)CCC[C@H]2NC(=O)C[C@@H]1CCCCN1S(=O)(=O)c1cccc(C(F)(F)F)c1 | – |
| 62 | 160 | CN(C)Cc1ccc2c(c1)CCC[C@H]2NC(=O)C[C@@H]1CCCCN1S(=O)(=O)c1cccc(C(F)(F)F)c1 | – |
| > 100000 | > 40000 | Cn1cnc(S(=O)(=O)N2CCCC[C@H]2CC(=O)N[C@@H]2CCCc3cc(CNC(C)(C)C)ccc32)c1 | – |
| 1200 | 590 | CCCCOc1ccc(S(=O)(=O)N2CCCC[C@H]2CC(=O)N[C@@H]2CCCc3cc(CNC(C)(C)C)ccc32)cc1 | – |
| 59 | 230 | CC(C)(C)CNCc1ccc2c(c1)CCC[C@H]2NC(=O)C[C@@H]1CCCCN1S(=O)(=O)c1cccc(C(F)(F)F)c1 | – |
| 1100 | 4300 | O=C(C[C@@H]1CCCCN1S(=O)(=O)c1cccc(C(F)(F)F)c1)N[C@@H]1CCCc2cc(CN3CCC3)ccc21 | – |
| 150 | 180 | CC(C)(C)NCc1ccc2c(c1)CCC[C@H]2NC(=O)C[C@@H]1CCCCN1S(=O)(=O)c1cccc2nsnc12 | – |
| 780 | 1400 | COc1ccc(S(=O)(=O)N2CCCC[C@H]2CC(=O)N[C@@H]2CCCc3cc(CNC(C)(C)C)ccc32)cc1 | – |
| 93 | 130 | Cc1ccc(S(=O)(=O)N2CCCC[C@H]2CC(=O)N[C@@H]2CCCc3cc(CNC(C)(C)C)ccc32)cc1 | – |
| 120 | 73 | CC(C)(C)NCc1ccc2c(c1)CCC[C@H]2NC(=O)C[C@@H]1CCCCN1S(=O)(=O)c1cccc(Cl)c1 | – |
| 690 | 540 | CC(C)(C)NCc1ccc2c(c1)CCC[C@H]2NC(=O)C[C@@H]1CCCCN1S(=O)(=O)c1ccc(-c2ccccc2)cc1 | – |
| 560 | 810 | CC(C)(C)NCc1ccc2c(c1)CCC[C@H]2NC(=O)C[C@@H]1CCCCN1S(=O)(=O)c1ccc(Cl)cc1 | – |
| 14 | 66 | CC(C)(C)NCc1ccc2c(c1)CCC[C@H]2NC(=O)C[C@@H]1CCCCN1S(=O)(=O)c1csc2ccccc12 | – |
| – | – | CC(C)(C)NCc1ccc2c(c1)CCC[C@H]2NC(=O)C[C@@H]1CCCCN1S(=O)(=O)c1cccc(C(F)(F)F)c1 | Vd [3]: 5.4 L/kg; clearance [4]: 36.7 mL/min/kg; bioavailability [5]: 19%; half-life [6]: 2 h |
| 72 | 110 | CC(C)NCc1ccc2c(c1)CCC[C@H]2NC(=O)C[C@@H]1CCCCN1S(=O)(=O)c1cccc(C(F)(F)F)c1 | – |
| 160 | 95 | CC(C)(C)NCc1ccc2c(c1)OCC[C@H]2NC(=O)C[C@@H]1CCCCN1S(=O)(=O)c1cccc(C(F)(F)F)c1 | – |
